From ChEMBL document CHEMBL1201862, “PubChem BioAssay data set” (2004)
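Briefly, cells in 96-well plates were exposed to five compound concentrations for 48 h, and endpoints were estimated by linear interpolation. At the GI50, growth is halved.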 Active and inactive are the calls of the source. Cut-off read from the data, not from the text of the source: active = GI50 up to about 1.1 µM and inactive = higher.

Tests used:
Test in all cases: NCI-60 cell line screen, 48 h
786-0 = test system: 786-0
A498 = test system: A498
ACHN = test system: ACHN
HCC 2998 = test system: HCC 2998
HOP-92 = test system: HOP-92
MCF7 = test system: MCF7
NCI-H460 = test system: NCI-H460
OVCAR-3 = test system: OVCAR-3
OVCAR-4 = test system: OVCAR-4
RPMI-8226 = test system: RPMI-8226
SF-295 = test system: SF-295
SK-MEL-5 = test system: SK-MEL-5
SN12C = test system: SN12C
SW-620 = test system: SW-620
TK-10 = test system: TK-10
U-251 = test system: U-251
UACC-62 = test system: UACC-62
UO-31 = test system: UO-31
SR = test system: SR
CCRF-CEM = test system: CCRF-CEM

Measured: GI50

Fc1cccc(F)c1C(Nc1nncs1)Nc1nncs1
inactive: 786-0 > 100 µM | A498 > 100 µM | ACHN > 100 µM | HCC 2998 > 100 µM | HOP-92 > 100 µM | MCF7 97.7 µM | NCI-H460 > 100 µM | OVCAR-3 > 100 µM | OVCAR-4 > 100 µM | RPMI-8226 > 100 µM | SF-295 > 100 µM | SK-MEL-5 > 100 µM | SN12C > 100 µM | SW-620 86.7 µM | TK-10 > 100 µM | U-251 > 100 µM | UACC-62 > 100 µM | UO-31 > 100 µM

CC1(c2ccccc2)CC(c2cccc([N+](=O)[O-])c2)=NO1 (stereo not given)
inactive: 786-0 > 100 µM | A498 > 100 µM | ACHN > 100 µM | HCC 2998 > 100 µM | HOP-92 > 100 µM | NCI-H460 > 100 µM | OVCAR-3 > 100 µM | OVCAR-4 > 100 µM | RPMI-8226 51.3 µM | SF-295 47.8 µM | SK-MEL-5 56.2 µM | SN12C > 100 µM | SR > 100 µM | SW-620 > 100 µM | TK-10 > 100 µM | U-251 > 100 µM | UO-31 82.8 µM

NC1=NN(c2ccccc2)C(=O)C1C(=O)C(=O)Nc1ccc(Cl)c(Cl)c1 (stereo not given)
inactive: 786-0 > 100 µM | A498 > 100 µM | ACHN 84.5 µM | CCRF-CEM 96.4 µM | HCC 2998 > 100 µM | HOP-92 > 100 µM | NCI-H460 > 100 µM | OVCAR-3 > 100 µM | OVCAR-4 > 100 µM | RPMI-8226 > 100 µM | SF-295 > 100 µM | SK-MEL-5 > 100 µM | SN12C > 100 µM | SR > 100 µM | SW-620 > 100 µM | TK-10 > 100 µM | U-251 > 100 µM | UACC-62 > 100 µM | UO-31 > 100 µM

C[C@H](CCC1=NCCN1)[C@H]1CC[C@H]2[C@@H]3[C@H](O)C[C@@H]4C[C@H](O)CC[C@]4(C)[C@H]3CC[C@]12C
inactive: 786-0 14.6 µM | A498 13.3 µM | ACHN 16.4 µM | CCRF-CEM 12.7 µM | HCC 2998 15.2 µM | HOP-92 8.89 µM | MCF7 15.2 µM | NCI-H460 12 µM | OVCAR-3 13.7 µM | OVCAR-4 14.9 µM | RPMI-8226 14.7 µM | SF-295 15.5 µM | SK-MEL-5 11.8 µM | SN12C 21.1 µM | SW-620 15.6 µM | TK-10 13.8 µM | U-251 12.8 µM | UACC-62 11.4 µM | UO-31 14.6 µM

Cc1[nH]c2ncn3nc(C(Cl)(Cl)Cl)nc3c2c1Cc1ccccc1
inactive: 786-0 > 100 µM | A498 > 100 µM | ACHN > 100 µM | CCRF-CEM > 100 µM | HCC 2998 > 100 µM | MCF7 > 100 µM | NCI-H460 > 100 µM | OVCAR-3 > 100 µM | OVCAR-4 > 100 µM | RPMI-8226 > 100 µM | SF-295 > 100 µM | SK-MEL-5 > 100 µM | SN12C > 100 µM | SW-620 > 100 µM | TK-10 > 100 µM | U-251 > 100 µM | UACC-62 > 100 µM | UO-31 10.5 µM

CCN(CC)C(=O)Cc1c(C(=O)N(CC)CC)c(=O)nc2sccn12
inactive: 786-0 > 100 µM | A498 > 100 µM | ACHN > 100 µM | CCRF-CEM > 100 µM | HCC 2998 > 100 µM | HOP-92 > 100 µM | NCI-H460 > 100 µM | OVCAR-3 > 100 µM | OVCAR-4 > 100 µM | RPMI-8226 > 100 µM | SF-295 > 100 µM | SN12C > 100 µM | SR > 100 µM | SW-620 > 100 µM | TK-10 > 100 µM | U-251 > 100 µM | UACC-62 > 100 µM | UO-31 > 100 µM

CCC1=CC2Cc3nc4cc(Cl)ccc4c(N)c3C(C1)C2 (stereo not given)
inactive: 786-0 5.04 µM | A498 4.86 µM | ACHN 7.8 µM | CCRF-CEM 3.35 µM | HCC 2998 1.51 µM | HOP-92 1.91 µM | MCF7 3.25 µM | NCI-H460 4.07 µM | OVCAR-3 7.29 µM | OVCAR-4 3.59 µM | RPMI-8226 2.03 µM | SF-295 4.45 µM | SK-MEL-5 1.57 µM | SN12C 12.5 µM | SW-620 8.91 µM | TK-10 4.38 µM | U-251 8.59 µM | UACC-62 6.04 µM | UO-31 4.92 µM

COc1ccc(C(=O)C#Cc2cn(C3CC(O)C(CO)O3)c(=O)[nH]c2=O)cc1 (stereo not given)
inactive: 786-0 49.7 µM | ACHN > 100 µM | CCRF-CEM > 10 µM | HCC 2998 > 100 µM | HOP-92 21.7 µM | MCF7 35.5 µM | NCI-H460 > 100 µM | OVCAR-3 19.2 µM | OVCAR-4 48.6 µM | RPMI-8226 > 100 µM | SF-295 > 100 µM | SK-MEL-5 28.4 µM | SN12C 28.7 µM | SW-620 43.1 µM | TK-10 78.3 µM | U-251 > 100 µM | UACC-62 55.5 µM | UO-31 > 100 µM

COc1ccc2oc(=N)c(C(N)=O)cc2c1
inactive: 786-0 53.5 µM | A498 44.2 µM | ACHN 30.3 µM | CCRF-CEM 33.2 µM | HCC 2998 32.7 µM | HOP-92 > 100 µM | NCI-H460 39.2 µM | OVCAR-3 37.4 µM | OVCAR-4 48.1 µM | RPMI-8226 > 100 µM | SK-MEL-5 60.4 µM | SN12C 74.5 µM | SR 38.5 µM | SW-620 94.8 µM | U-251 > 100 µM | UACC-62 29.8 µM

Cc1c2ccccc2c(=O)n2c(-c3ccccn3)cccc12
inactive: 786-0 > 100 µM | A498 29.8 µM | ACHN > 100 µM | CCRF-CEM > 100 µM | HCC 2998 > 100 µM | HOP-92 > 100 µM | NCI-H460 > 100 µM | OVCAR-3 97.1 µM | OVCAR-4 > 100 µM | RPMI-8226 > 100 µM | SF-295 > 100 µM | SK-MEL-5 > 100 µM | SN12C > 100 µM | SR 54 µM | SW-620 > 100 µM | TK-10 > 100 µM | U-251 > 100 µM | UACC-62 > 100 µM | UO-31 > 100 µM

NS(=O)(=O)c1nnc(NC(=O)N(c2ccccc2)c2ccccc2)s1
inactive: 786-0 23 µM | CCRF-CEM 20.1 µM | HOP-92 19.1 µM | MCF7 38.1 µM | OVCAR-3 19.5 µM | OVCAR-4 27.9 µM | RPMI-8226 17 µM | SF-295 34 µM | SK-MEL-5 22.7 µM | SN12C 15.8 µM | SW-620 29.9 µM | TK-10 41.2 µM | U-251 43.7 µM | UACC-62 21.9 µM | UO-31 24 µM

COC(=O)/C(=N\O)C(C(=O)C=C(C)C)C(=O)C(=O)Nc1ccccc1C (stereo not given)
inactive: 786-0 > 100 µM | A498 > 100 µM | ACHN > 100 µM | CCRF-CEM > 100 µM | HCC 2998 > 100 µM | HOP-92 > 100 µM | NCI-H460 > 100 µM | OVCAR-3 > 100 µM | OVCAR-4 > 100 µM | RPMI-8226 > 100 µM | SF-295 > 100 µM | SK-MEL-5 > 100 µM | SN12C > 100 µM | SR > 100 µM | SW-620 > 100 µM | TK-10 > 100 µM | U-251 > 100 µM | UACC-62 > 100 µM | UO-31 > 100 µM

COc1ccc(Cc2c(N)[nH]c(=O)n(C)c2=O)cc1
inactive: 786-0 > 100 µM | A498 > 100 µM | ACHN > 100 µM | HCC 2998 > 100 µM | HOP-92 3.9 µM | MCF7 5.75 µM | NCI-H460 72.1 µM | OVCAR-3 > 100 µM | OVCAR-4 89.7 µM | RPMI-8226 > 100 µM | SF-295 > 100 µM | SK-MEL-5 > 100 µM | SN12C 42.8 µM | SW-620 > 100 µM | TK-10 > 100 µM | U-251 > 100 µM | UACC-62 > 100 µM | UO-31 5 µM

CS(=O)(=O)OCCN1CCN(C(=O)c2ccc(Cl)c3c(Nc4ccc(S(=O)(=O)N=C(N)N)cc4)c4ccccc4nc23)CC1
inactive: 786-0 > 100 µM | A498 > 100 µM | ACHN > 100 µM | CCRF-CEM > 100 µM | HCC 2998 > 100 µM | HOP-92 > 100 µM | NCI-H460 > 100 µM | OVCAR-3 > 100 µM | OVCAR-4 > 100 µM | RPMI-8226 > 100 µM | SF-295 > 100 µM | SK-MEL-5 > 100 µM | SN12C > 100 µM | SR > 100 µM | TK-10 > 100 µM | U-251 > 100 µM | UACC-62 > 100 µM | UO-31 > 100 µM

O=C(NCCN1C(=O)CN=C(c2ccc(Cl)cc2)c2cc(Cl)ccc21)OCc1ccccc1
inactive: 786-0 14.7 µM | A498 11.2 µM | ACHN 16.3 µM | CCRF-CEM 11.7 µM | HCC 2998 14.3 µM | HOP-92 14.7 µM | NCI-H460 13.4 µM | OVCAR-3 12.6 µM | OVCAR-4 8.71 µM | RPMI-8226 19.7 µM | SF-295 13.7 µM | SK-MEL-5 15.2 µM | SN12C 14.3 µM | SR 9.48 µM | SW-620 13.6 µM | TK-10 16.7 µM | U-251 15.2 µM | UACC-62 14.8 µM | UO-31 10.9 µM
